Data published in the NIST ThermoML archive (doi:10.1021/je900216m).
± gives the expanded uncertainty stated by the source.

Assay: osmotic coefficient (dimensionless); mn = molality of the nth substance listed, in mol/kg
Details: Liquid, isopiestic method

CCCC[N+](CC)(CC)CC.[Br-] [butyltriethyl ammonium bromide] + O
Details	osmotic coefficient
283.15 K, m1 = 0.1033	0.9271 ± 0.0029
283.15 K, m1 = 0.1376	0.9231 ± 0.0031
283.15 K, m1 = 0.2187	0.9188 ± 0.0033
283.15 K, m1 = 0.2974	0.9175 ± 0.0034
283.15 K, m1 = 0.3319	0.9169 ± 0.0035
283.15 K, m1 = 0.4688	0.92 ± 0.0034
283.15 K, m1 = 0.555	0.9241 ± 0.0034
283.15 K, m1 = 0.679	0.9288 ± 0.0033
283.15 K, m1 = 0.78	0.934 ± 0.0032
283.15 K, m1 = 0.8485	0.9393 ± 0.0031
283.15 K, m1 = 0.9497	0.9464 ± 0.0029
288.15 K, m1 = 0.1039	0.9158 ± 0.0033
288.15 K, m1 = 0.1569	0.904 ± 0.0038
288.15 K, m1 = 0.2793	0.8916 ± 0.0043
288.15 K, m1 = 0.3789	0.8853 ± 0.0046
288.15 K, m1 = 0.4818	0.884 ± 0.0047
288.15 K, m1 = 0.6069	0.8837 ± 0.0048
288.15 K, m1 = 0.6983	0.8853 ± 0.0048
288.15 K, m1 = 0.8052	0.8899 ± 0.0046
288.15 K, m1 = 0.8847	0.8929 ± 0.0046
288.15 K, m1 = 1.028	0.8989 ± 0.0044

CCCC[N+](CC)(CC)CCCC.[Br-] [dibutyldiethylammonium bromdie] + O
Details	osmotic coefficient
283.15 K, m1 = 0.1034	0.9261 ± 0.0029
283.15 K, m1 = 0.1376	0.9232 ± 0.003
283.15 K, m1 = 0.2189	0.9178 ± 0.0033
283.15 K, m1 = 0.2978	0.9163 ± 0.0033
283.15 K, m1 = 0.3324	0.9156 ± 0.0034
283.15 K, m1 = 0.4702	0.9172 ± 0.0033
283.15 K, m1 = 0.5576	0.9198 ± 0.0033
283.15 K, m1 = 0.6825	0.924 ± 0.0032
283.15 K, m1 = 0.7842	0.9289 ± 0.003
283.15 K, m1 = 0.8544	0.9328 ± 0.0029
283.15 K, m1 = 0.9569	0.9393 ± 0.0026
288.15 K, m1 = 0.1041	0.9139 ± 0.0034
288.15 K, m1 = 0.1562	0.908 ± 0.0036
288.15 K, m1 = 0.2772	0.8982 ± 0.004
288.15 K, m1 = 0.3749	0.8947 ± 0.0041
288.15 K, m1 = 0.4763	0.8941 ± 0.0042
288.15 K, m1 = 0.6002	0.8934 ± 0.0043
288.15 K, m1 = 0.6897	0.8963 ± 0.0042
288.15 K, m1 = 0.7971	0.8989 ± 0.0041
288.15 K, m1 = 0.8741	0.9038 ± 0.0039
288.15 K, m1 = 1.012	0.9132 ± 0.0036

CC(C)C[N+](CC(C)C)(CC(C)C)CC(C)C.[Br-] [tetra-iso-butyl ammonium bromide] + O
Details	osmotic coefficient
283.15 K, m1 = 0.1035	0.9253 ± 0.0029
283.15 K, m1 = 0.1376	0.9231 ± 0.0031
283.15 K, m1 = 0.2192	0.9167 ± 0.0034
283.15 K, m1 = 0.2986	0.9138 ± 0.0035
283.15 K, m1 = 0.3332	0.9133 ± 0.0036
283.15 K, m1 = 0.4724	0.9129 ± 0.0037
283.15 K, m1 = 0.5608	0.9146 ± 0.0037
283.15 K, m1 = 0.6871	0.9179 ± 0.0037
283.15 K, m1 = 0.7904	0.9217 ± 0.0036
283.15 K, m1 = 0.8617	0.9249 ± 0.0035
283.15 K, m1 = 0.9658	0.9307 ± 0.0034
288.15 K, m1 = 0.1041	0.9142 ± 0.0034
288.15 K, m1 = 0.1569	0.9038 ± 0.0038
288.15 K, m1 = 0.2795	0.8908 ± 0.0043
288.15 K, m1 = 0.3804	0.8818 ± 0.0047
288.15 K, m1 = 0.4856	0.877 ± 0.005
288.15 K, m1 = 0.6127	0.8752 ± 0.0051
288.15 K, m1 = 0.7082	0.8728 ± 0.0052
288.15 K, m1 = 0.8192	0.8747 ± 0.0052
288.15 K, m1 = 0.9012	0.8766 ± 0.0052
288.15 K, m1 = 1.05	0.8804 ± 0.0051

CCC(C)[N+](C(C)CC)(C(C)CC)C(C)CC.[Br-] (stereo not given) [tetra-sec-butyl ammonium bromide] + O
Details	osmotic coefficient
283.15 K, m1 = 0.1033	0.927 ± 0.0029
283.15 K, m1 = 0.1377	0.9222 ± 0.0031
283.15 K, m1 = 0.2195	0.9154 ± 0.0035
283.15 K, m1 = 0.2991	0.9123 ± 0.0036
283.15 K, m1 = 0.3339	0.9114 ± 0.0037
283.15 K, m1 = 0.4732	0.9114 ± 0.0039
283.15 K, m1 = 0.5619	0.9128 ± 0.0039
283.15 K, m1 = 0.6887	0.9157 ± 0.0039
283.15 K, m1 = 0.7927	0.919 ± 0.0039
283.15 K, m1 = 0.8651	0.9213 ± 0.0038
283.15 K, m1 = 0.9705	0.9261 ± 0.0037
288.15 K, m1 = 0.1042	0.913 ± 0.0034
288.15 K, m1 = 0.1572	0.9021 ± 0.0039
288.15 K, m1 = 0.2811	0.8859 ± 0.0046
288.15 K, m1 = 0.3824	0.8772 ± 0.0049
288.15 K, m1 = 0.4912	0.867 ± 0.0054
288.15 K, m1 = 0.6212	0.8632 ± 0.0056
288.15 K, m1 = 0.7168	0.8624 ± 0.0057
288.15 K, m1 = 0.8295	0.8638 ± 0.0057
288.15 K, m1 = 0.9119	0.8663 ± 0.0056
288.15 K, m1 = 1.06	0.8713 ± 0.0055

CCCC[N+](CCCC)(CCCC)CCCC.[Br-] [tetrabutylammonium bromide] + O
Details	osmotic coefficient
283.15 K, m1 = 0.1035	0.9257 ± 0.003
283.15 K, m1 = 0.138	0.9204 ± 0.0032
283.15 K, m1 = 0.2197	0.9146 ± 0.0034
283.15 K, m1 = 0.2995	0.9111 ± 0.0037
283.15 K, m1 = 0.3343	0.9104 ± 0.0037
283.15 K, m1 = 0.4739	0.9101 ± 0.004
283.15 K, m1 = 0.5629	0.9111 ± 0.0042
283.15 K, m1 = 0.6903	0.9136 ± 0.0042
283.15 K, m1 = 0.7953	0.916 ± 0.0042
283.15 K, m1 = 0.8682	0.918 ± 0.0042
283.15 K, m1 = 0.9751	0.9217 ± 0.0041
288.15 K, m1 = 0.1045	0.9107 ± 0.0035
288.15 K, m1 = 0.1582	0.8964 ± 0.0041
288.15 K, m1 = 0.2837	0.8776 ± 0.0049
288.15 K, m1 = 0.3864	0.8681 ± 0.0053
288.15 K, m1 = 0.4954	0.8596 ± 0.0058
288.15 K, m1 = 0.628	0.8539 ± 0.0062
288.15 K, m1 = 0.7262	0.8512 ± 0.0063
288.15 K, m1 = 0.8429	0.8501 ± 0.0064
288.15 K, m1 = 0.9276	0.8517 ± 0.0064
288.15 K, m1 = 1.079	0.8566 ± 0.0062
